Data from patent US20240315994A1, “SMALL MOLECULE MODULATORS OF FERROPTOSIS” (ARPEGGIO BIOSCIENCES, INC., priority 2021, published 2024).

Assays:
[1] = tested on: HT-1080 fibrosarcoma cells; assay: HT-1080 single-concentration cell viability screen (Cell Titer Glo); format: cell-based; conditions: 10 μM compound, 48 hours, duplicate, fraction of control
Description: To identify potential covalent inhibitors of GPX4, we screened a panel of 294 diverse small molecules from the Enamine covalent inhibitor library (Catalog No. CSL-10480-0-Z-10, Enamine, Monmouth, NJ). Each compound contains either a chloroacetamide or acrylamide moiety theoretically capable of forming a covalent bond with a selenocysteine. The small molecule compounds were selected for a diversity of backbone structures. The screening protocol used the cell viability assay Cell Titer Glo® (available from Promega, Madison, WI). Cell Titer Glo® is a luminescent cell viability that determines the number of viable cells in culture by quantifying ATP, which indicates the presence of metabolically active cells. Briefly, HT-1080 fibrosarcoma cells were plated 24 hours prior to treatment with 10 µM of each compound in the screening panel. Cell Titer Glo® was used to read out cell viability after 48 hours of compound exposure. Data was collected in duplicate.
To determine whether similar molecules could offer other starting points for a medicinal chemistry campaign, we screened 95 additional compounds that contain a similar base structure to that of 8216. Briefly, HT-1080 fibrosarcoma cells were treated with 10 µM of a compound for 48 hours and cell viability was measured by Cell Titer Glo®. Data was collected in duplicate. […]

[2] = tested on: HT1080 cells (ATCC, cat #CCL-121); assay: HT1080 CellTiter-Glo 2.0 IC50 assay of working examples; format: cell-based; conditions: HT-1080, 24 hrs, cells plated with and without 1.5 μM ferrostatin-1, table does not say which
Description: Biological evaluation of working examples A1-A47 and B1-B28 was performed in HT1080 cells (ATCC, cat #CCL-121) according to the procedure provided below.
• 1.1 Cells were harvested from flask into cell culture medium and then the cell number count was determined. • 1.2 The cells were suspended with 1.5 μM ferrostatin-1 and without ferrostatin-1. • 1.3 Cells were plated at a density of 1,500 cells per well in a 384-well black sided clear bottom plate, in 25 μL, using electronic multichannel pipette. • 1.4 Plates were covered with lid and spun for 1 min at 1000 rpm, then allowed to incubate overnight at 37° C. under 5% CO2.
• 2.1 Compounds were dissolved at 10 mM stock solution and 10 μl of diluted solution was transferred to a 384 LDV-plate (LABCYTE, LP-0200). A 3 fold, 11-point dilution was performed. • 2.2 Cells were treated with compounds by plate reformat Echo software and spun for 1 min at 1000 rpm. Then incubated at 37° C. for 24 hrs in a CO2 incubator.
• 3.1 The plates were removed from the incubator and allowed to equilibrate to room temperature, at least 30 minutes. • 3.2 CellTiter-Glo® 2.0 Reagent (Promega, G9242) was added (25 μL) to the assay plates and spun for 1 min at 1000 rpm. Then allowed to stand for about 20 minutes before reading luminescence signal on Envision. • 3.3 The IC50 calculations were determined with a nonlinear fit, variable slope (four parameters) log(inhibitor) vs. response model using GraphPad PRISM.

Structure (SMILES)	Average relative cell viability [1]	IC50 ([2]; Table 7) [nM]	also measured
O=C(CCl)N(Cc1cccs1)C1Cc2ccccc2C1 [Compound Z3766262414]	0.5481	–	–
CN(Cc1cnc(N(C)C)nc1)C(=O)CCl [Compound Z2596884436]	0.4026	–	–
COCCN(Cc1ccccc1)C(=O)CCl [Compound Z147647648]	0.1007	–	–
CC#CC(=O)N(Cc1ccc(-n2cncn2)cc1)C1CC1 [Compound Z2020497058]	1.089	–	–
CC1(N(Cc2ccc3c(c2)OCO3)C(=O)CCl)CCCC1 [Compound Z3766260223]	0.002238	–	–
O=C(CCl)N(Cc1nc(C2CCCCCC2)no1)C1CC1 [Compound Z3766269910]	0.002904	–	–
COc1cc(CN(C(=O)CCl)C2CCCOC2)ccc1C (centres unmarked) [Compound Z4323349920]	0.002028	–	–
CCOC(=O)c1sc(N(Cc2ccccc2)C(=O)CCl)nc1C [Compound Z56837076]	0.004698	–	–
Cn1ccc(N(Cc2ccccc2)C(=O)CCl)n1 [Compound Z4170009630]	0.08916	–	–
O=C(CCl)N(Cc1ccccc1)c1ccccc1 [Compound Z199424090]	0.00039	–	–
COc1ccc2nc(CN(Cc3ccc(F)cc3)C(=O)CCl)sc2c1 [Compound Z4425210755]	0.002562	–	–
O=C(CCN(Cc1ccc2c(c1)CCOC2)C(=O)CCl)NC1CCCC1 [Compound Z4425210882]	0.1465	–	–
COc1nc2ccc(CN(Cc3ccc(F)cc3)C(=O)CCl)cc2s1 [Compound Z4425210756]	0.00393	–	–
O=C(CCl)N(Cc1ccccc1)Cc1ccco1 [Compound Z108565162]	0.005394	–	–
COc1cc(OC)cc(N(Cc2c(Cl)cc(F)cc2Cl)C(=O)CCl)c1 [Compound A26, 2-chloro-N-[(2,6-dichloro-4-fluoro-phenyl)methyl]-N-(3,5-dimethoxyphenyl)acetamide]	–	10 to 100	–
COCCCN(C(=O)CCl)c1nc(-c2ccc(OC)cc2)cs1 [Compound B3, 2-chloro-N-[4-(4-methoxyphenyl)thiazol-2-yl]-N-(3-methoxypropyl)acetamide]	–	–	IC50 ([2]; Table 8): 1000 to 10000 nM
C#CC(=O)N(c1cc(OC)cc(OC)c1)c1nc(-c2ccc(Br)cc2)cs1 [Compound B19, N-[4-(4-bromophenyl)thiazol-2-yl]-N-(3,5-dimethoxyphenyl)prop-2-ynamide]	–	–	IC50 ([2]; Table 8): 10 to 100 nM
O=C(CCl)N(Cc1ccc(F)cc1)c1cc(F)cc(F)c1 [Compound A15, 2-chloro-N-(3,5-difluorophenyl)-N-[(4-fluorophenyl)methyl]acetamide]	–	1000 to 10000	–
C=CC(=O)N(c1cc(C)cc(C)c1)c1nc(-c2ccc(Br)cc2)cs1 [Compound B7, N-[4-(4-bromophenyl)thiazol-2-yl]-N-(3,5-dimethylphenyl)prop-2-enamide]	–	–	IC50 ([2]; Table 8): > 10000 nM
COc1cc(OC)cc(N(Cc2ccc(F)cc2)C(=O)CCl)c1 [Compound A3, 2-chloro-N-(3,5-dimethoxyphenyl)-N-[(4-fluorophenyl)methyl]acetamide]	–	10 to 100	–
CC#CC(=O)N(c1cc(C)cc(C)c1)c1nc(-c2ccc(Br)cc2)cs1 [Compound B8, N-[4-(4-bromophenyl)thiazol-2-yl]-N-(3,5-dimethylphenyl)but-2-ynamide]	–	–	IC50 ([2]; Table 8): > 10000 nM
COc1cccc(F)c1N(Cc1ccc(F)cc1)C(=O)CCl [Compound A32, 2-chloro-N-(2-fluoro-6-methoxy-phenyl)-N-[(4-fluorophenyl)methyl]acetamide]	–	1000 to 10000	–

Structure (SMILES)	Average relative cell viability [1]	IC50 ([2]; Table 7) [nM]	also measured
Cc1cc(C)cc(N(C(=O)CI)c2nc(-c3ccc(Br)cc3)cs2)c1 [Compound B21, N-[4-(4-bromophenyl)thiazol-2-yl]-N-(3,5-dimethylphenyl)-2-iodo-acetamide]	–	–	IC50 ([2]; Table 8): 10 to 100 nM
Cc1cc(C)cc(N(C(=O)CCl)c2nc(-c3cccc(Br)c3)cs2)c1 [Compound B12, N-[4-(3-bromophenyl)thiazol-2-yl]-2-chloro-N-(3,5-dimethylphenyl)acetamide]	–	–	IC50 ([2]; Table 8): 100 to 1000 nM
COc1cccc(N(C(=O)CCl)c2nc(-c3ccc(Br)cc3)cs2)c1 [Compound B17, N-[4-(4-bromophenyl)thiazol-2-yl]-2-chloro-N-(3-methoxyphenyl)acetamide]	–	–	IC50 ([2]; Table 8): 100 to 1000 nM
COc1ccc(N(Cc2ccc(F)cc2)C(=O)CCl)c(C#N)c1 [Compound A36, 2-chloro-N-(2-cyano-4-methoxy-phenyl)-N-[(4-fluorophenyl)methyl]acetamide]	–	1000 to 10000	–
COc1cccc(N(Cc2ccc(F)cc2)C(=O)CCl)c1 [Compound A13, 2-chloro-N-[(4-fluorophenyl)methyl]-N-(3-methoxyphenyl)acetamide]	–	100 to 1000	–
COc1ccc(CN(C(=O)CCl)c2cc(C)cc(C)c2)cc1 [Compound A2, 2-chloro-N-(3,5-dimethylphenyl)-N-[(4-methoxyphenyl)methyl]acetamide]	–	10 to 100	–
Cc1cc(C)cc(N(C(=O)CCl)c2nc(C3CCCCC3)cs2)c1 [Compound B10, 2-chloro-N-(4-cyclohexylthiazol-2-yl)-N-(3,5-dimethylphenyl)acetamide]	–	–	IC50 ([2]; Table 8): 100 to 1000 nM
O=C(CCl)N(Cc1ccc(F)cc1)c1cccc(Cl)c1 [Compound A18, 2-chloro-N-(3-chlorophenyl)-N-[(4-fluorophenyl)methyl]acetamide]	–	100 to 1000	–
COc1cc(OC)cc(N(Cc2cc(C)cc(F)c2)C(=O)CCl)c1 [Compound A44, 2-chloro-N-(3,5-dimethoxyphenyl)-N-[(3-fluoro-5-methyl-phenyl)methyl]acetamide]	–	10 to 100	–
O=C(CCl)N(Cc1ccc(F)cc1)C1CCCCC1 [Compound A12, 2-chloro-N-cyclohexyl-N-[(4-fluorophenyl)methyl]acetamide]	–	100 to 1000	–
Cc1cc(C)cc(N(Cc2ccccc2C)C(=O)CCl)c1 [Compound A11, 2-chloro-N-(3,5-dimethylphenyl)-N-(o-tolylmethyl)acetamide]	–	100 to 1000	–
O=C(CCl)N(Cc1ccccc1)c1nc(-c2ccc(Br)cc2)cs1 [Compound B14, N-benzyl-N-[4-(4-bromophenyl)thiazol-2-yl]-2-chloro-acetamide]	–	–	IC50 ([2]; Table 8): 1000 to 10000 nM
Cc1cc(C)cc(N(C(=O)CCl)c2nc(-c3ccc(Br)cc3)cs2)c1 [Compound B5, N-[4-(4-bromophenyl)thiazol-2-yl]-2-chloro-N-(3,5-dimethylphenyl)acetamide]	–	–	IC50 ([2]; Table 8): 100 to 1000 nM
COc1cc(OC)cc(N(Cc2cccc(C(F)(F)F)c2F)C(=O)CCl)c1 [Compound A31, 2-chloro-N-(3,5-dimethoxyphenyl)-N-[[2-fluoro-3-(trifluoro-methyl)phenyl]methyl]acetamide]	–	10 to 100	–
Cc1cc(C)cc(N(Cc2ccccc2Cl)C(=O)CCl)c1 [Compound A6, 2-chloro-N-[(2-chlorophenyl)methyl]-N-(3,5-dimethylphenyl)acetamide]	–	100 to 1000	–
COc1ccccc1CN(C(=O)CCl)c1cc(C)cc(C)c1 [Compound A7, 2-chloro-N-(3,5-dimethylphenyl)-N-[(2-methoxyphenyl)methyl]acetamide]	–	10 to 100	–
Cc1ccc(CN(C(=O)CCl)c2cc(C)cc(C)c2)cc1 [Compound A10, 2-chloro-N-(3,5-dimethylphenyl)-N-(p-tolylmethyl)acetamide]	–	100 to 1000	–
O=C(CCl)N(c1ccccc1)c1nc(-c2ccc(Br)cc2)cs1 [Compound B15, N-[4-(4-bromophenyl)thiazol-2-yl]-2-chloro-N-phenyl-acetamide]	–	–	IC50 ([2]; Table 8): > 10000 nM
COc1cc(N(Cc2ccc(F)cc2)C(=O)CCl)ccn1 [Compound A46, 2-chloro-N-[(4-fluorophenyl)methyl]-N-(2-methoxy-4-pyridyl)acetamide]	–	100 to 1000	–
COc1cc(OC)cc(N(Cc2cc(C#N)ccc2F)C(=O)CCl)c1 [Compound A28, 2-chloro-N-[(5-cyano-2-fluoro-phenyl)methyl]-N-(3,5-dimethoxyphenyl)acetamide]	–	10 to 100	–
Cc1cc(C)cc(N(Cc2ccc(Cl)cc2)C(=O)CCl)c1 [Compound A4, 2-chloro-N-[(4-chlorophenyl)methyl]-N-(3,5-dimethylphenyl)acetamide]	–	100 to 1000	–
O=C(CCl)N(c1cc(Cl)cc(Cl)c1)c1nc(-c2ccc(Br)cc2)cs1 [Compound B20, N-[4-(4-bromophenyl)thiazol-2-yl]-2-chloro-N-(3,5-dichlorophenyl)acetamide]	–	–	IC50 ([2]; Table 8): 1000 to 10000 nM
